This passage reports T/C results from PubChem BioAssay AID212 (DTP/NCI, 2004).

Several values for one entry are separate records, joined by “and”; a condition that tells them apart may be missing. Identical values can stand only once. Inconclusive results are not listed.

The subject of the assay is BDF1 mice, colon carcinoma 38 sc, T/C %. Nature of the assay: NCI In Vivo Anticancer Drug Screen. Data for tumor model Colon Carcinoma 38 (subcutaneous) in B6D2F1 (BDF1) mice. As for the experimental part: The antitumor activity of compounds was measured in mice bearing transplantable tumors. Survival or tumor size were measured and the results are expressed as the measurement made in the treated group (T) divided by the measurement made in the vehicle treated control group (C). The tumor model used in this assay is Colon Carcinoma 38 (subcutaneous) in B6D2F1 (BDF1) mice

[1] abbreviates: endpoint: median tumor weight (est.), dose: 12.5 mg/kg/injection, schedule: Q07DX002 (ip), vehicle: saline, higher = larger tumour.
[2] abbreviates: endpoint: median tumor weight (est.), dose: 25.0 mg/kg/injection, schedule: Q07DX002 (ip), vehicle: saline, higher = larger tumour.
Setting [3] is: endpoint: median tumor weight (est.), dose: 50.0 mg/kg/injection, schedule: Q07DX002 (ip), vehicle: saline, higher = larger tumour.
[4] abbreviates: endpoint: median tumor weight (est.), dose: 100.0 mg/kg/injection, schedule: Q07DX002 (ip), vehicle: saline, higher = larger tumour.
The mark [5] stands for this setting: endpoint: median tumor weight (est.), dose: 100.0 mg/kg/injection, schedule: Q07DX002 (ip), vehicle: saline with Tween-80, higher = larger tumour.

Consider `Cc1ncc([N+](=O)[O-])n1CCO`, for which the T/C runs as follows: (endpoint: median tumor weight (est.), dose: 37.5 mg/kg/injection, schedule: Q01DX005 (ip), vehicle: Klucel (hydroxypropylcellulose) (HPC), higher = larger tumour) 78 % of control; (endpoint: median tumor weight (est.), dose: 37.5 mg/kg/injection, schedule: Q04DX003 (ip), vehicle: Klucel (hydroxypropylcellulose) (HPC), higher = larger tumour) 88 % of control; (endpoint: median tumor weight (est.), dose: 75.0 mg/kg/injection, schedule: Q01DX005 (ip), vehicle: Klucel (hydroxypropylcellulose) (HPC), higher = larger tumour) 61 % of control; (endpoint: median tumor weight (est.), dose: 75.0 mg/kg/injection, schedule: Q04DX003 (ip), vehicle: Klucel (hydroxypropylcellulose) (HPC), higher = larger tumour) 121 % of control; (endpoint: median tumor weight (est.), dose: 75.0 mg/kg/injection, schedule: Q07DX002 (ip), vehicle: Klucel (hydroxypropylcellulose) (HPC), higher = larger tumour) 74 % of control; (endpoint: median tumor weight (est.), dose: 150.0 mg/kg/injection, schedule: Q01DX005 (ip), vehicle: Klucel (hydroxypropylcellulose) (HPC), higher = larger tumour) 83 % of control. The T/C is 80 % of control (endpoint: median tumor weight (est.), dose: 150.0 mg/kg/injection, schedule: Q04DX003 (ip), vehicle: Klucel (hydroxypropylcellulose) (HPC), higher = larger tumour); 156 % of control (endpoint: median tumor weight (est.), dose: 150.0 mg/kg/injection, schedule: Q07DX002 (ip), vehicle: Klucel (hydroxypropylcellulose) (HPC), higher = larger tumour); 93 % of control (endpoint: median tumor weight (est.), dose: 300.0 mg/kg/injection, schedule: Q01DX005 (ip), vehicle: Klucel (hydroxypropylcellulose) (HPC), higher = larger tumour); 75 % of control (endpoint: median tumor weight (est.), dose: 300.0 mg/kg/injection, schedule: Q04DX003 (ip), vehicle: Klucel (hydroxypropylcellulose) (HPC), higher = larger tumour); 103 % of control (endpoint: median tumor weight (est.), dose: 300.0 mg/kg/injection, schedule: Q07DX002 (ip), vehicle: Klucel (hydroxypropylcellulose) (HPC), higher = larger tumour); 105 % of control (endpoint: median tumor weight (est.), dose: 600.0 mg/kg/injection, schedule: Q01DX005 (ip), vehicle: Klucel (hydroxypropylcellulose) (HPC), higher = larger tumour). For the same molecule, for the setting “endpoint: median tumor weight (est.), dose: 600.0 mg/kg/injection, schedule: Q07DX002 (ip), vehicle: Klucel (hydroxypropylcellulose) (HPC), higher = larger tumour”, the T/C was 99 % of control.

On to `CCCCCCCCCCCCCCCC(=O)O[C@@]12C[C@@H](C)[C@@]3(O)[C@@H](C=C(CO)C[C@]4(O)C(=O)C(C)=C[C@@H]34)[C@@H]1C2(C)C`, for which the T/C is 92 % of control (endpoint: median tumor weight (est.), dose: 0.06 mg/kg/injection, schedule: Q07DX002 (ip), vehicle: saline, higher = larger tumour); 91 % of control (endpoint: median tumor weight (est.), dose: 0.25 mg/kg/injection, schedule: Q07DX002 (ip), vehicle: saline, higher = larger tumour); 101 % of control (endpoint: median tumor weight (est.), dose: 0.5 mg/kg/injection, schedule: Q07DX002 (ip), vehicle: saline, higher = larger tumour); 60 % of control (endpoint: median tumor weight (est.), dose: 1.0 mg/kg/injection, schedule: Q07DX002 (ip), vehicle: saline, higher = larger tumour).

Turning to `OCCN1CCN(CC/C=C2/c3ccccc3Sc3ccc(C(F)(F)F)cc32)CC1`, the T/C (endpoint: median tumor weight (est.), dose: 1.56 mg/kg/injection, schedule: Q07DX002 (ip), vehicle: saline, higher = larger tumour) is 110 % of control; the T/C (endpoint: median tumor weight (est.), dose: 3.12 mg/kg/injection, schedule: Q07DX002 (ip), vehicle: saline, higher = larger tumour) was 121 % of control; the T/C (endpoint: median tumor weight (est.), dose: 6.25 mg/kg/injection, schedule: Q07DX002 (ip), vehicle: saline, higher = larger tumour) is 100 % of control; the T/C under setting [1] was 95 % of control; the T/C under setting [2] was 120 % of control; the T/C under setting [3] was 68 % of control.

Turning to `COC(=O)C(N)CCCCNc1ccc2c(cc1=O)C(NC(C)=O)CCc1cc(OC)c(OC)c(OC)c1-2` (configuration not stated), for the setting “endpoint: median tumor weight (est.), dose: 287.0 mg/kg/injection, schedule: Q07DX002 (ip), vehicle: saline, higher = larger tumour”, the T/C was 78 % of control.

Take `CC1CCC(NC(=O)N(CCCl)N=O)CC1` (configuration not stated): the T/C is 115 % of control (endpoint: median survival time, dose: 3.3 mg/kg/injection, schedule: Q01DX010 (oral), vehicle: saline with Tween-80, higher = longer survival); 93 % of control (endpoint: median survival time, dose: 5.0 mg/kg/injection, schedule: Q04DX005 (ip), vehicle: other, higher = longer survival); 99 % of control (endpoint: median survival time, dose: 5.5 mg/kg/injection, schedule: Q01DX010 (oral), vehicle: saline with Tween-80, higher = longer survival); 100 % of control (endpoint: median survival time, dose: 9.0 mg/kg/injection, schedule: Q01DX010 (oral), vehicle: saline with Tween-80, higher = longer survival); 122 % of control (endpoint: median survival time, dose: 10.0 mg/kg/injection, schedule: Q04DX005 (ip), vehicle: other, higher = longer survival); 153 % of control (endpoint: median survival time, dose: 20.0 mg/kg/injection, schedule: Q04DX005 (ip), vehicle: other, higher = longer survival). Moreover, the T/C was 61 % of control (endpoint: median tumor weight (est.), dose: 4.0 mg/kg/injection, schedule: Q07DX002 (ip), vehicle: Klucel (hydroxypropylcellulose) (HPC), higher = larger tumour); 53 % of control (endpoint: median tumor weight (est.), dose: 8.0 mg/kg/injection, schedule: Q07DX002 (ip), vehicle: Klucel (hydroxypropylcellulose) (HPC), higher = larger tumour); 64 % of control (endpoint: median tumor weight (est.), dose: 16.0 mg/kg/injection, schedule: Q07DX002 (ip), vehicle: Klucel (hydroxypropylcellulose) (HPC), higher = larger tumour); 18 % of control (endpoint: median tumor weight (est.), dose: 32.0 mg/kg/injection, schedule: Q07DX002 (ip), vehicle: Klucel (hydroxypropylcellulose) (HPC), higher = larger tumour).

Turning to `O=C1CN(CN2CCOCC2)C(=O)CN1CN1CCOCC1`, the T/C is, setting by setting: under setting [1], 115 % of control; under setting [3], 116 % of control and 107 % of control; under setting [4], 115 % of control; (endpoint: median tumor weight (est.), dose: 400.0 mg/kg/injection, schedule: Q07DX002 (ip), vehicle: saline, higher = larger tumour) 50 % of control.

For the molecule `CCCC(=O)OCc1cc(=O)n(C)c2c3c4c(cc12)c(C)cc(=O)n4CO3`, the T/C reads like this: (endpoint: median tumor weight (est.), dose: 6.25 mg/kg/injection, schedule: Q07DX002 (ip), vehicle: Klucel (hydroxypropylcellulose) (HPC), higher = larger tumour) 99 % of control; (endpoint: median tumor weight (est.), dose: 12.5 mg/kg/injection, schedule: Q07DX002 (ip), vehicle: Klucel (hydroxypropylcellulose) (HPC), higher = larger tumour) 96 % of control; (endpoint: median tumor weight (est.), dose: 25.0 mg/kg/injection, schedule: Q07DX002 (ip), vehicle: Klucel (hydroxypropylcellulose) (HPC), higher = larger tumour) 162 % of control; (endpoint: median tumor weight (est.), dose: 50.0 mg/kg/injection, schedule: Q07DX002 (ip), vehicle: Klucel (hydroxypropylcellulose) (HPC), higher = larger tumour) 150 % of control; (endpoint: median tumor weight (est.), dose: 100.0 mg/kg/injection, schedule: Q07DX002 (ip), vehicle: Klucel (hydroxypropylcellulose) (HPC), higher = larger tumour) 64 % of control.

With `CS(C)=O`, the T/C runs as follows: (endpoint: median tumor weight (est.), dose: 1.5 grams/kg/injection, schedule: Q07DX003 (ip), vehicle: saline, higher = larger tumour) 86 % of control; (endpoint: median tumor weight (est.), dose: 6.0 grams/kg/injection, schedule: Q07DX003 (ip), vehicle: saline, higher = larger tumour) 83 % of control and 103 % of control; (endpoint: median tumor weight (est.), dose: 12.0 grams/kg/injection, schedule: Q07DX003 (ip), vehicle: saline, higher = larger tumour) 171 % of control.

In the case of `Nc1nc(N)c2cc(S(=O)(=O)c3ccccc3)ccc2n1`, the T/C (endpoint: median survival time, dose: 57.0 mg/kg/injection, schedule: Q06HX014 (ip), vehicle: saline with Tween-80, higher = longer survival) was 166 % of control; the T/C (endpoint: median survival time, dose: 86.0 mg/kg/injection, schedule: Q06HX014 (ip), vehicle: saline with Tween-80, higher = longer survival) was 205 % of control; the T/C (endpoint: median survival time, dose: 520.0 mg/kg/injection, schedule: Q07DX002 (ip), vehicle: saline with Tween-80, higher = longer survival) is 118 % of control; the T/C under setting [5] is 106 % of control; the T/C (endpoint: median tumor weight (est.), dose: 200.0 mg/kg/injection, schedule: Q07DX002 (ip), vehicle: saline with Tween-80, higher = larger tumour) is 190 % of control; the T/C (endpoint: median tumor weight (est.), dose: 400.0 mg/kg/injection, schedule: Q07DX002 (ip), vehicle: saline with Tween-80, higher = larger tumour) is 169 % of control. Besides, for the setting “endpoint: median tumor weight (est.), dose: 800.0 mg/kg/injection, schedule: Q07DX002 (ip), vehicle: saline with Tween-80, higher = larger tumour”, the T/C was 21 % of control.

In the case of `Cc1cc(=O)n2c3c(c4c(cc13)c(CN(C)C)cc(=O)n4C)OC2`, the T/C by setting is: (endpoint: median tumor weight (est.), dose: 25.0 mg/kg/injection, schedule: Q07DX002 (ip), vehicle: saline with Tween-80, higher = larger tumour) 73 % of control; (endpoint: median tumor weight (est.), dose: 50.0 mg/kg/injection, schedule: Q07DX002 (ip), vehicle: saline with Tween-80, higher = larger tumour) 56 % of control; under setting [5], 45 % of control.

Take `CC(=O)C(=O)O.CC(=O)C(=O)O.[NH-]C1CCCCC1[NH-].[Pt+2]` (configuration not stated): the T/C reads like this: (endpoint: median tumor weight (est.), dose: 25.0 mg/kg/injection, schedule: Q07DX002 (ip), vehicle: dextrose, higher = larger tumour) 96 % of control; (endpoint: median tumor weight (est.), dose: 50.0 mg/kg/injection, schedule: Q07DX002 (ip), vehicle: dextrose, higher = larger tumour) 44 % of control.

In the case of `COC(=O)Nc1nc2ccc(C3(c4ccc(F)cc4)OCCO3)cc2[nH]1`, the T/C under setting [1] is 111 % of control and 90 % of control; the T/C under setting [2] is 70 % of control and 87 % of control.

As for `O=C(O)Cc1cccc2c(=O)cc(-c3ccc4ccccc4c3)oc12`, the T/C under setting [4] was 104 % of control and the T/C (endpoint: median tumor weight (est.), dose: 200.0 mg/kg/injection, schedule: Q07DX002 (ip), vehicle: saline, higher = larger tumour) is 59 % of control.
